Reference: patent US6969711B2, “Cyclic diamine compounds and medicine containing the same” (Kowa Company, Ltd., priority 1997, dated 2005)

| Compound | melting point |
| --- | --- |
| CCCCCCCN(CCN1CCN(CCSc2nc3cccc(C(F)(F)F)c3o2)CC1)C(=O)Nc1c(C(C)C)cc(O)cc1C(C)C.Cl | 95 to 97 °C |
| CCCCCCCN(CCN1CCN(CCCSc2nc3ccccc3o2)CC1)C(=O)Nc1c(SC)cc(C)nc1SC.Cl.Cl | 208 to 210 °C |
| CCCCCCCN(CCN1CCN(CCSc2nc3ccccc3o2)CC1)C(=O)Nc1c(SCC)cc(C)nc1SCC.Cl.Cl | 124 to 127 °C |
| CCCCCCCN(CCN1CCN(CCSc2nc3ccccc3s2)CC1)C(=O)Nc1c(SCC)cc(C)nc1SCC.Cl.Cl | 136 to 138 °C |
| CCCCCCCN(CCN1CCN(CCSc2nc3ccccc3[nH]2)CC1)C(=O)Nc1c(SCC)cc(C)nc1SCC.Cl.Cl | 134 to 137 °C |
| CCSc1cc(C)nc(SCC)c1NC(=O)CN1CCN(CCSc2nc3ncccc3o2)CC1.O=C(O)/C=C\C(=O)O.O=C(O)/C=C\C(=O)O | 148 to 149 °C |
| CC(C)c1ccc(NS(C)(=O)=O)c(C(C)C)c1NC(=O)CN1CCN(CCSc2nc3cccc(C(F)(F)F)c3o2)CC1.O=C(O)/C=C\C(=O)O.O=C(O)/C=C\C(=O)O | 172 to 174 °C |
| CC(C)c1cc(OC(=O)[C@H](C)N)cc(C(C)C)c1NC(=O)CN1CCN(CCSc2nc3ccccc3o2)CC1.O=C(O)C(F)(F)F.O=C(O)C(F)(F)F.O=C(O)C(F)(F)F | 183 to 184 °C |
| CC(C)c1cc(OC(=O)[C@H](C)N)cc(C(C)C)c1NC(=O)CN1CCN(CCSc2nc3cccc(C(F)(F)F)c3o2)CC1.O=C(O)C(F)(F)F.O=C(O)C(F)(F)F.O=C(O)C(F)(F)F | 124 to 126 °C |
| CSc1cc(C)nc(SC)c1NC(=O)CCN1CCN(CCCSc2nc3ncccc3o2)CC1.Cl.Cl | 224 to 227 °C |
| Cc1cc(SC(C)C)c(NC(=O)CN2CCN(CCSc3nc4ccccc4o3)CC2)c(SC(C)C)n1.Cl.Cl | 159 to 164 °C |
| Cc1cc(SC(C)C)c(NC(=O)CN2CCN(CCSc3nc4ccccc4s3)CC2)c(SC(C)C)n1.Cl.Cl | 139 to 142 °C |
| Cc1cc(SC(C)C)c(NC(=O)CN2CCN(CCSc3nc4ncccc4o3)CC2)c(SC(C)C)n1.Cl.Cl | 170 to 172 °C |
| Cc1cc(SC(C)C)c(NC(=O)CN2CCN(CCCSc3nc4ccccc4o3)CC2)c(SC(C)C)n1.Cl.Cl | 178 to 181 °C |
| CSc1ncccc1NC(=O)CN1CCN(CCSc2nc3ccccc3o2)CC1.Cl.Cl | 186 to 189 °C |
| CSc1nc(C)ccc1NC(=O)CN1CCN(CCSc2nc3ccccc3o2)CC1.Cl.Cl | 200 to 203 °C |
| COc1ccc(C(C)C)c(NC(=O)CN2CCN(CCSc3nc4ccccc4o3)CC2)c1C(C)C.Cl.Cl | 218 to 222 °C |
| CCOP(=O)(OCC)Oc1cc(C(C)C)c(NC(=O)CN2CCN(CCSc3nc4ccccc4o3)CC2)c(C(C)C)c1 | 108 to 109 °C |
| CC(C)c1cccc(C(C)C)c1NC(=O)CN1CCN(CCSc2nc3ccccc3s2)CC1 [Example 2, 2-[4-[2-(benzothiazol-2-ylthio)ethyl]-piperazin-1-yl]-N-(2,6-diisopropylphenyl)acetamide] | 170 to 171 °C |
| CC(C)c1cccc(C(C)C)c1NC(=O)CN1CCN(CCSc2nc3ccccc3[nH]2)CC1 [Example 3, 2-[4-[2-(benzimidazol-2-ylthio)ethyl]-piperazin-1-yl]-N-(2,6-diisopropylphenyl)acetamide] | 207 °C (dec.) |
| COC(=O)c1cccc2nc(SCCN3CCN(CC(=O)Nc4c(C(C)C)cccc4C(C)C)CC3)oc12 [Example 4, 2-[4-[2-(7-methoxycarbonylbenzoxazol-2-ylthio)ethyl]-piperazin-1-yl]-N-(2,6diisopropylphenyl)acetamide] | 159 to 161 °C |
| CC(C)c1cccc(C(C)C)c1NC(=O)CN1CCN(CCCSc2nc3ccccc3s2)CC1 [Example 8, 2-[4-[3-(benzothiazol-2-ylthio)propyl]piperazin-1-yl]-N-(2,6-diisopropylphenyl)acetamide] | 113 to 115 °C |
